Results from patent US20250101063A1, “POLYPEPTIDE COMPOUND AND USE THEREOF IN TREATMENT OF ENTERITIS” (Sichuan Gooddoctor Panxi Pharmaceutical Co., Ltd., priority 2022, published 2025).
Entries after “also recorded” stand apart in the source; their conditions may differ. Where no end group is shown, it is not given here.

Key:
[1] = tested on: zebrafish model of intestinal mucosal injury; experiment: Efficacy in relieving colitis: intestinal lumen area in TNBS-treated zebrafish; assay type: in vivo; conditions: for Intestinal lumen area (pixels, mean ± SE): 2 days after TNBS, n = 10; for Activity in relieving intestinal lumen dilatation: 1000 μg/mL, significance vs model control group of the same batch; for Intestinal lumen area compared with the model control group (in words): 250, 500, 1000 μg/mL, Table 4
Procedure: Experimental animals: Wild-type AB strain zebrafishes, bred by natural pair mating. Zebrafishes aged 3 days post fertilization (3 dpf). Zebrafishes were kept in fish farming water at 28° C. (water quality: 200 mg of instant sea salt in each 1L of reverse osmosis water, with the conductivity of 450-550 μS/cm; pH of 6.5-8.5; and hardness of 50-100 mg/L CaCO3), the experimental animal use license number is: SYXK (Zhe) 2012-0171, and the breeding management met the requirements of the international AAALAC certification (certification number: 001458).
(1) Grouping: Polypeptide group: prepared into a stock solution of 20.0 mg/mL with ultrapure water and stored at −20° C.
Positive control group: prednisone, as white powder, with batch number C10016501, Shanghai Macklin Biochemical Technology Co., Ltd., stored at 4° C.; prepared into a 15.0 mg/mL stock solution with DMSO, and stored in aliquots at −20° C.
Normal control group and model control group.
(2) Experimental method: 3 dpf wild-type AB strain zebrafishes were randomly selected and placed in a 6-well plate, with 30 zebrafishes in each well (experimental group). Except for the normal control group, all other experimental groups were given TNBS in water to establish the zebrafish model of intestinal mucosal injury. After 2 days of treatment at 28° C., TNBS was removed, and polypeptide compound in water (at concentrations shown in Table 4) was given respectively, and for the positive control, prednisone was 15.0 μg/mL. A normal control group (healthy group) and a model control group (intestinal mucosal injury group) were set up at the same time. The capacity of each well (experimental group) was 3 mL. After 2 days of treatment at 28° C., 10 zebrafishes were randomly selected from each experimental group and photographed under a dissecting microscope. NIS-Elements D 3.20 advanced image processing software was used to analyze and collect data, and the intestinal lumen area of the zebrafish was analyzed. The statistical analysis results of this indicator were used to evaluate the efficacy of the samples in relieving colitis. The statistics results were expressed as mean±SE. SPSS26.0 software was used for statistical analysis, and p<0.05 indicates statistically significant difference.
The concentration gradient of the test substances set in this experimental system was 250 μg/mL, 500 μg/mL, and 1000 μg/mL. […] When the concentration of the test substance was further increased for intervention, the death phenomenon of zebrafishes was found in the group; therefore, in the subsequent rounds of activity evaluation, each test polypeptide compound was uniformly administered at 1000 μg/mL for intervention.

[2] = tested on: TNBS-induced model of acute inflammatory bowel disease (UC) in SD rat; experiment: TNBS-induced model of acute inflammatory bowel disease (UC) in SD rat; assay type: in vivo; conditions: for Body weight, Grouping day (D 0, g): D 0, before treatment; for Body weight, Grouping day (D 0, g) / DAI score, Experimental day 1 (D 1, point) / DAI score, Experimental day 3 (D 3, point) / Body weight, Experimental day 5 (D 5, g): enema once a day; for Body weight, Grouping day (D 0, g) / DAI score AUC(0-14 d) (D 0-D 14) / Weight change range (D 0-D 14, %) / DAI score, Experimental day 1 (D 1, point) / DAI score, Experimental day 3 (D 3, point) / Body weight, Experimental day 5 (D 5, g) / Body weight, Experimental endpoint (D 14, g) / DAI score, Experimental endpoint (D 14, point) / Colon length (cm) / Colon ulcer and inflammation score (point) / Colon ulcer area (cm^2) / Colon weight / Colon weight/length ratio (100* g/cm) / Colonic adhesion score (point): mean ± SD; for DAI score AUC(0-14 d) (D 0-D 14) / Weight change range (D 0-D 14, %) / Body weight, Experimental endpoint (D 14, g) / DAI score, Experimental endpoint (D 14, point) / Colon length (cm) / Colon ulcer and inflammation score (point) / Colon ulcer area (cm^2) / Colon weight / Colon weight/length ratio (100* g/cm) / Colonic adhesion score (point) / Effect on disease progression of ulcerative colitis / DAI scores (in words) / Effect on weight gain inhibition / weight loss response of model animals (in words): enema once a day 14 days; for Colon length (cm) / Colon ulcer and inflammation score (point) / Colon ulcer area (cm^2) / Colon weight / Colon weight/length ratio (100* g/cm) / Colonic adhesion score (point) / Effect on colon atrophy process / colon weight/length ratio (in words) / Effect on gross colon injury status (colonic adhesion, ulcer and inflammation) and colon ulcer area (in words): experimental endpoint; for Overall therapeutic effect in the rat model of ulcerative colitis (in words) / Effect on disease progression of ulcerative colitis / DAI scores (in words) / Effect on weight gain inhibition / weight loss response of model animals (in words) / Effect on colon atrophy process / colon weight/length ratio (in words) / Effect on gross colon injury status (colonic adhesion, ulcer and inflammation) and colon ulcer area (in words): set treatment regimen; for Effect on disease progression of ulcerative colitis / DAI scores (in words) / Effect on weight gain inhibition / weight loss response of model animals (in words) / Effect on colon atrophy process / colon weight/length ratio (in words) / Effect on gross colon injury status (colonic adhesion, ulcer and inflammation) and colon ulcer area (in words): vs model control group
Description: In this experiment, a rat model of ulcerative colitis was established by administering trinitrobenzene sulfonic acid (TNBS) to laboratory animal male SD rats for a single enema intervention. Acute colitis in rats induced by trinitrobenzene sulfonic acid (TNBS) is an immune response induced by cytokines secreted by Th1 type cells. […] This model is simple to establish and has good reproducibility. It is an experimental animal model widely used in evaluating drugs for the treatment of inflammatory bowel disease. […] During the experimental treatment period (D1-D14), the body weight and general clinical observation indicators (including but not limited to food intake, water intake, activity level and defecation, etc.) of the animals in each experimental group were dynamically collected. At the same time, based on the relevant scoring standards for the disease activity index of ulcerative colitis, the reactivity such as the weight loss degree, stool morphology and trait, and bloody stool of the animals in each experimental group after TNBS induction were scored, and the disease activity index (DAI) of ulcerative colitis was calculated, once a day for 14 consecutive days. At the end point of the experiment, colon tissues of animals in each experimental group were collected, and the length and weight of the colon were measured and then the non-autopsy images were collected. Then the colon was cut open along the intestinal wall longitudinally and autopsy images were collected. Based on the “Criteria for Scoring Gross Morphological Manifestations of the Colon”, the gross damage with respect to colon adhesions, colon ulcers and inflammation of animals in each experimental group was observed and scored. Ulcer images were collected under a stereomicroscope and the area of colon ulcer foci was calculated, followed by routine fixation.

[3] = high dose group (compound 1: 6.0 mg/kg; compound 6: 2.8 mg/kg)
[4] = low dose group (compound 1: 3.0 mg/kg; compound 6: 1.4 mg/kg)
[5] = compound 12: 0.8 mg/kg, mesalazine: 30.0 mg/kg

EPVPQAK [Compound 6]
Intestinal lumen area (pixels, mean ± SE) ([1]; 250 μg/mL in water): 53093 ± 3839 pixels
Intestinal lumen area (pixels, mean ± SE) ([1]; 500 μg/mL in water): 45831 ± 3894 pixels
Intestinal lumen area (pixels, mean ± SE) ([1]; 1000 μg/mL in water): 28429 ± 3711 pixels
Activity in relieving intestinal lumen dilatation [1]: ** (** p < 0.01)
Intestinal lumen area compared with the model control group (in words) [1]: significant statistical differences compared with the model control group
Body weight, Grouping day (D 0, g) [2, 3]: 275.55 ± 7.92 g
Body weight, Grouping day (D 0, g) [2, 4]: 276.61 ± 9.81 g
DAI score AUC(0-14 d) (D 0-D 14) [2, 3]: 39.55 ± 3.99^####++++
Weight change range (D 0-D 14, %) [2, 3]: 1.50 ± 10.78%
DAI score AUC(0-14 d) (D 0-D 14) [2, 4]: 49.65 ± 3.95
Weight change range (D 0-D 14, %) [2, 4]: 0.48 ± 9.87%
DAI score, Experimental day 1 (D 1, point) [2, 3]: 4.2 ± 0.8 point
DAI score, Experimental day 1 (D 1, point) [2, 4]: 3.9 ± 0.9 point
DAI score, Experimental day 3 (D 3, point) [2, 3]: 4.8 ± 1.0 point
DAI score, Experimental day 3 (D 3, point) [2, 4]: 5.0 ± 1.7 point
Body weight, Experimental day 5 (D 5, g) [2, 3]: 246.74 ± 22.76 g
Body weight, Experimental day 5 (D 5, g) [2, 4]: 243.72 ± 22.18 g
Body weight, Experimental endpoint (D 14, g) [2, 3]: 279.67 ± 30.93 g
DAI score, Experimental endpoint (D 14, point) [2, 3]: 0.7 ± 1.2 point
Body weight, Experimental endpoint (D 14, g) [2, 4]: 277.96 ± 29.18 g
DAI score, Experimental endpoint (D 14, point) [2, 4]: 1.3 ± 1.2 point
Colon length (cm) [2, 3]: 13.89 ± 1.60 cm
Colon ulcer and inflammation score (point) [2, 3]: 2.50 ± 1.43 point
Colon ulcer area (cm^2) [2, 3]: 3.66 ± 2.36^# cm^2
Colon weight [2, 3]: 2.41 ± 0.63 g
Colon weight/length ratio (100* g/cm) [2, 3]: 17.70 ± 5.71# 100* g/cm
Colonic adhesion score (point) [2, 3]: 1.30 ± 0.82 point
Colon length (cm) [2, 4]: 13.37 ± 1.40 cm
Colon ulcer and inflammation score (point) [2, 4]: 3.00 ± 0.94 point
Colon ulcer area (cm^2) [2, 4]: 3.46 ± 2.06^## cm^2
Colon weight [2, 4]: 2.23 ± 0.39 g
Colon weight/length ratio (100* g/cm) [2, 4]: 16.93 ± 3.87^## 100* g/cm
Colonic adhesion score (point) [2, 4]: 1.70 ± 0.67 point
Overall therapeutic effect in the rat model of ulcerative colitis (in words) [2]: significant therapeutic effects
Effect on disease progression of ulcerative colitis / DAI scores (in words) [2]: significant improvement effect on the disease progression of ulcerative colitis
Effect on weight gain inhibition / weight loss response of model animals (in words) [2]: no obvious improved therapeutic effect; also recorded: did not show a significant weight improvement effect
Effect on colon atrophy process / colon weight/length ratio (in words) [2]: colon weight/length ratio was significantly decreased
Effect on gross colon injury status (colonic adhesion, ulcer and inflammation) and colon ulcer area (in words) [2]: obvious therapeutic effects; also recorded: significant therapeutic effects on the gross damage manifestation of the colon

Pro-Val-Pro-Gln (PVPQ; printed: Pro-Val-Pro-Gln) [Compound 12]
Intestinal lumen area (pixels, mean ± SE) ([1]; 250 μg/mL in water): 48857 ± 5649 pixels
Intestinal lumen area (pixels, mean ± SE) ([1]; 500 μg/mL in water): 43802 ± 3228 pixels
Intestinal lumen area (pixels, mean ± SE) ([1]; 1000 μg/mL in water): 26727 ± 2106 pixels
Activity in relieving intestinal lumen dilatation [1]: ** (** p < 0.01)
Intestinal lumen area compared with the model control group (in words) [1]: significant statistical differences compared with the model control group
Body weight, Grouping day (D 0, g) [2, 5]: 276.36 ± 7.47 g
DAI score AUC(0-14 d) (D 0-D 14) [2, 5]: 46.40 ± 3.68
Weight change range (D 0-D 14, %) [2, 5]: −1.52 ± 12.20%
DAI score, Experimental day 1 (D 1, point) [2, 5]: 4.1 ± 0.6 point
DAI score, Experimental day 3 (D 3, point) [2, 5]: 4.9 ± 1.0 point
Body weight, Experimental day 5 (D 5, g) [2, 5]: 244.90 ± 21.75 g
Body weight, Experimental endpoint (D 14, g) [2, 5]: 272.00 ± 33.21 g
DAI score, Experimental endpoint (D 14, point) [2, 5]: 1.4 ± 1.8 point
Colon length (cm) [2, 5]: 13.74 ± 1.97 cm
Colon ulcer and inflammation score (point) [2, 5]: 2.30 ± 0.82 point
Colon ulcer area (cm^2) [2, 5]: 3.79 ± 1.63^# cm^2
Colon weight [2, 5]: 2.10 ± 0.19 g
Colon weight/length ratio (100* g/cm) [2, 5]: 15.68 ± 3.14# 100* g/cm
Colonic adhesion score (point) [2, 5]: 1.20 ± 0.63 point
Overall therapeutic effect in the rat model of ulcerative colitis (in words) [2]: significant therapeutic effects
Effect on disease progression of ulcerative colitis / DAI scores (in words) [2]: significant improvement effect on the disease progression of ulcerative colitis
Effect on weight gain inhibition / weight loss response of model animals (in words) [2]: no obvious improved therapeutic effect; also recorded: did not show a significant weight improvement effect
Effect on colon atrophy process / colon weight/length ratio (in words) [2]: colon weight/length ratio was significantly decreased
Effect on gross colon injury status (colonic adhesion, ulcer and inflammation) and colon ulcer area (in words) [2]: obvious therapeutic effects; also recorded: significant therapeutic effects on the gross damage manifestation of the colon
